Assay results as given in patent US11667602B2, “Compounds and their use” (AstraZeneca AB, priority 2020, dated 2023).
Values after ≈ are worked out from the molar mass of the structure shown. Read-outs that look alike come from different tables or passages of the source.

What was measured:
[1] = Rat Hepatocyte Stability (Test E); format: in vitro ADME; conditions: geometric mean if run multiple times; for hepatocyte CLint: rat, hepatocytes
Summary of the method: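 Intrinsic clearance in rat hepatocytes, expressed as μl/min/10^6 cells, following the literature integrated DMPK panel method. Repeat determinations combined as geometric mean.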

[2] = Human Liver Microsomal Stability (Test C); format: in vitro ADME; conditions: for microsomal CLint: human, liver microsomes
Summary of the method: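 CLint (μl/min/mg protein) derived from compound depletion in human liver microsomes following a published standardized early-DMPK protocol; replicate determinations given as arithmetic mean.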

[3] = Human Hepatocyte Stability (Test D); format: in vitro ADME; conditions: geometric mean if run multiple times; for hepatocyte CLint at 1 µM: human, cryopreserved pooled human hepatocytes (LiverPool 10-Donor)
Summary of the method: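 Intrinsic clearance (μL/min/10^6 cells), derived as kV/N from the log-linear loss of parent compound. Compound incubated at 37 °C with cryopreserved pooled human hepatocytes, 0.25×10^6 cells in 0.25 mL L-15; dosing solution 100 μM in acetonitrile. Singlicate incubations, cassette LC-MS; repeats reported as geometric mean.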

Solubility (Test F) = format: physicochemical; conditions: arithmetic mean if run multiple times
Description: The assay was conducted according to the Solubility Assay described in pages 164-167 of Wernevik, J. et al., “A Fully Integrated Assay Panel for Early Drug Metabolism and Pharmacokinetics Profiling”, Assay and Drug Development Technologies, 2020, 18(4), 157-179. Data are reported in Table 36 as solubility ([…]. Where the assay was run multiple times for the same compound, the arithmetic mean is reported.

[4] = Human Plasma Protein Binding (Test B); format: in vitro ADME; conditions: fraction unbound (fu)
Summary of the method: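 Values given as % free (fu) in human plasma, using the method of Wernevik et al. (2020). For compounds tested more than once, the arithmetic mean is given.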

human RXFP1 = biological target: T1, human RXFP1 (Homo sapiens, UniProt Q9HBX9); experiment: RXFP1 Hu cAMP (Test A); format: cell-based; set-up: expressed in transfected cells; host or cells: Jump-In T-REx CHO-K1 cells (ThermoFisher), induced with 10 ng/ml doxycycline for 24 h
T1 sequence (Q9HBX9 1-757): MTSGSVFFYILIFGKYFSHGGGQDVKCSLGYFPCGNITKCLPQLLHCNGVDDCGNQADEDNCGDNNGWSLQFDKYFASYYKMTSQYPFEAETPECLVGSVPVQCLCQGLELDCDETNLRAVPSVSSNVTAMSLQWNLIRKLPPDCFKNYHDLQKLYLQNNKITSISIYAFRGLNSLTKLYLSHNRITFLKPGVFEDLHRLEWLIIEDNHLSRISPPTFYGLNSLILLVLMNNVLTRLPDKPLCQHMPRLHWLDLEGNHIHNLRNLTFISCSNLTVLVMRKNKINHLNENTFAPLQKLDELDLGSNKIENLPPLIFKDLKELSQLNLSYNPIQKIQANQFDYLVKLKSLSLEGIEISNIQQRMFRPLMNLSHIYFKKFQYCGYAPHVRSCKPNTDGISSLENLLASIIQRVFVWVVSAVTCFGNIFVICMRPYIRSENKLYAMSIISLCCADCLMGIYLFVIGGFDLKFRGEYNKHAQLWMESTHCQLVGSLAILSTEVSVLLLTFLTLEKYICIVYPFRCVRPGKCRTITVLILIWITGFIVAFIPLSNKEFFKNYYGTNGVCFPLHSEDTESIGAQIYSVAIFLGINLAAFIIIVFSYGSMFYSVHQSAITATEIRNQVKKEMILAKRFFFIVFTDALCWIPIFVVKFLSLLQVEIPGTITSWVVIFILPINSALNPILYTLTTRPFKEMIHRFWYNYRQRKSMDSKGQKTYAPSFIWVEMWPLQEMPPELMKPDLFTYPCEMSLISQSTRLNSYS
Summary of the method: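 Read-out is HTRF signal, inversely proportional to cAMP, converted to cAMP amount by standard curve. Stimulation occurred in inducible CHO-K1 cells expressing the human receptor with phosphodiesterases blocked by 0.5 mM IBMX.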

[5] = RXFP1 Hu cAMP, read-out: Test A EC50

COc1cc(F)c(O[C@H]2CC[C@@H](C(=O)O)CC2)cc1C(=O)N[C@@H]1[C@H]2CC[C@H](C2)[C@@H]1C(=O)NCC(C)(C)C [Example 180, (1S,4s)-4-(2-Fluoro-4-methoxy-5-(((1S,2R,3S,4R)-3-(neopentylcarbamoyl)bicyclo[2.2.1]heptan-2-yl)carbamoyl)phenoxy)cyclohexane-1-carboxylic acid]
hepatocyte CLint [1]: 130 µL/min/1e6 cells | microsomal CLint [2]: 6.8 µL/min/mg | hepatocyte CLint at 1 µM [3]: 2.2 µL/min/1e6 cells | solubility (Solubility (Test F)): > 1000 µM | Test B Human Plasma Protein Binding (% free) [4]: 14 % free | Test A Sinf (human RXFP1; RXFP1 Hu cAMP): 100% | EC50 (human RXFP1; Test A EC50, RXFP1 Hu cAMP): 950 nM

COc1ccc(O[C@H]2CC[C@@](C)(C(=O)O)CC2)cc1C(=O)N[C@@H]1[C@H]2CC[C@H](C2)[C@@H]1C(=O)NCC1(C)CCC1 [Example 381]
hepatocyte CLint [1]: 21 µL/min/1e6 cells | microsomal CLint [2]: 36 µL/min/mg | hepatocyte CLint at 1 µM [3]: 6.1 µL/min/1e6 cells | solubility (Solubility (Test F)): 1000 µM (≈ 527 µg/mL) | Test B Human Plasma Protein Binding (% free) [4]: 3.8 % free | EC50 (human RXFP1; Test A EC50, RXFP1 Hu cAMP): 110 nM

COc1cc(F)c(-c2ccc(C[C@@H](C(=O)O)N(C)C)cc2)cc1C(=O)N[C@@H]1[C@H]2CC[C@H](C2)[C@@H]1C(=O)Nc1cccc(S(=O)(=O)C(F)(F)F)c1 (racemic) [Example 289, (S)-2-(Dimethylamino)-3-(2′-fluoro-4′-methoxy-5′-(((1RS,2SR,3RS,4SR)-3-((3-((trifluoromethyl)sulfonyl)phenyl)carbamoyl)bicyclo[2.2.1]heptan-2-yl)carbamoyl)-[1,1′-biphenyl]-4-yl)propanoic acid]
hepatocyte CLint [1]: 11 µL/min/1e6 cells | microsomal CLint [2]: 21 µL/min/mg | hepatocyte CLint at 1 µM [3]: 7.2 µL/min/1e6 cells | solubility (Solubility (Test F)): 36 µM (≈ 25.4 µg/mL) | Test B Human Plasma Protein Binding (% free) [4]: 1 % free | Test A Sinf (human RXFP1; RXFP1 Hu cAMP): 112% | EC50 (human RXFP1; [5]): 470 nM

COc1cc(F)c(-c2ccc(C(=O)O)cc2)cc1C(=O)N[C@H]1[C@@H](C(=O)Nc2ccc(F)c(S(=O)(=O)C(F)(F)F)c2)[C@@H]2C=C[C@H]1C2 (racemic) [Example 296, rac-2′-Fluoro-5′-(((1R,2R,3S,4S)-3-((4-fluoro-3-((trifluoromethyl)sulfonyl)phenyl)carbamoyl)bicyclo[2.2.1]hept-5-en-2-yl)carbamoyl)-4′-methoxy-[1,1′-biphenyl]-4-carboxylic acid]
hepatocyte CLint [1]: 17 µL/min/1e6 cells | microsomal CLint [2]: 15 µL/min/mg | hepatocyte CLint at 1 µM [3]: 22 µL/min/1e6 cells | solubility (Solubility (Test F)): 640 µM (≈ 416 µg/mL) | Test B Human Plasma Protein Binding (% free) [4]: <0.32 % free | Test A Sinf (human RXFP1; RXFP1 Hu cAMP): 98% | EC50 (human RXFP1; [5]): 220 nM

COc1cc(F)c(-c2ccc(C(=O)O)cc2)cc1C(=O)N[C@H]1[C@@H](C(=O)Nc2cc(F)cc(C(F)(F)F)c2)[C@@H]2C=C[C@H]1C2 (racemic) [Example 308]
hepatocyte CLint [1]: 33 µL/min/1e6 cells | microsomal CLint [2]: 4.9 µL/min/mg | hepatocyte CLint at 1 µM [3]: 14 µL/min/1e6 cells | solubility (Solubility (Test F)): > 1000 µM | Test B Human Plasma Protein Binding (% free) [4]: 0.16 % free | Test A Sinf (human RXFP1; RXFP1 Hu cAMP): 109%

COc1cc(F)c(O[C@H]2CC[C@@](C)(C(=O)O)CC2)cc1C(=O)NC1CCOCC1C(=O)Nc1cccc(S(=O)(=O)C(F)(F)F)c1 (single isomer, unassigned) [Example 518, (1R,4s)-4-(2-Fluoro-4-methoxy-5-(((3S*,4S*)-3-((3-((trifluoromethyl)sulfonyl)phenyl)carbamoyl)tetrahydro-2H-pyran-4-yl)carbamoyl)phenoxy)-1-methylcyclohexane-1-carboxylic acid]
hepatocyte CLint [1]: 13 µL/min/1e6 cells | microsomal CLint [2]: 22 µL/min/mg | hepatocyte CLint at 1 µM [3]: 5 µL/min/1e6 cells | solubility (Solubility (Test F)): 990 µM (≈ 654 µg/mL) | Test B Human Plasma Protein Binding (% free) [4]: 2.1 % free | Test A Sinf (human RXFP1; RXFP1 Hu cAMP): 95% | EC50 (human RXFP1; [5]): 130 nM

COc1cc(F)c(O[C@H]2CC[C@@](C)(C(=O)O)CC2)cc1C(=O)N[C@H]1C[C@@H](OC)C[C@H]1C(=O)Nc1cccc(S(=O)(=O)C(F)(F)F)c1 (stereo in doubt) [Example 523, (1R,4s)-4-(2-fluoro-4-methoxy-5-(((1S*,2R*,4S*)-4-methoxy-2-((3-((trifluoromethyl)sulfonyl)phenyl)carbamoyl)cyclopentyl)carbamoyl)phenoxy)-1-methylcyclohexane-1-carboxylic acid]
Test E Rat Hepatocyte Stability Clint ([1]; rat hepatocytes): 34 μL/min/10^6 cells | Test C Human Liver Microsomal Stability Clint ([2]; human liver microsomes): >300 µL/min/mg | Test D Human Hepatocyte Stability Clint ([3]; human hepatocytes): 49 μL/min/10^6 cells | solubility (Solubility (Test F)): 920 µM (≈ 621 µg/mL) | Test B Human Plasma Protein Binding (% free) [4]: 4 % free | Test A Sinf (human RXFP1; RXFP1 Hu cAMP): 95% | EC50 (human RXFP1; [5]): 270 nM

COc1cc(F)c(O[C@H]2CC[C@@](C)(C(=O)O)CC2)cc1C(=O)NC1C2CCC(C2)C1C(=O)Nc1cccc(S(=O)(=O)C(F)(F)F)c1 (single isomer, unassigned) [Example 586, (1R,4s)-4-(2-Fluoro-4-methoxy-5-(((1S*,2S*,3R*,4R*)-3-((3-((trifluoromethyl)sulfonyl)phenyl)carbamoyl)bicyclo[2.2.1]heptan-2-yl)carbamoyl)phenoxy)-1-methylcyclohexane-1-carboxylic acid]
hepatocyte CLint [1]: 17 µL/min/1e6 cells | microsomal CLint [2]: 12 µL/min/mg | hepatocyte CLint at 1 µM [3]: 4.3 µL/min/1e6 cells | solubility (Solubility (Test F)): 190 µM (≈ 127 µg/mL) | Test B Human Plasma Protein Binding (% free) [4]: 0.33 % free | Test A Sinf (human RXFP1; RXFP1 Hu cAMP): 105% | EC50 (human RXFP1; [5]): 1.5 nM

CC1(CNC(=O)[C@H]2[C@@H]3CC[C@@H](C3)[C@H]2NC(=O)c2cc(O[C@H]3CC[C@@](C)(C(=O)O)CC3)c(Cl)cc2F)CCC1 [Example 408]
hepatocyte CLint [1]: 20 µL/min/1e6 cells | microsomal CLint [2]: 32 µL/min/mg | hepatocyte CLint at 1 µM [3]: 6.5 µL/min/1e6 cells | solubility (Solubility (Test F)): 670 µM (≈ 368 µg/mL) | Test B Human Plasma Protein Binding (% free) [4]: 0.87 % free | Test A Sinf (human RXFP1; RXFP1 Hu cAMP): 106% | EC50 (human RXFP1; [5]): 24 nM

COc1cc(F)c(O[C@H]2CC[C@@](C)(C(=O)O)CC2)cc1C(=O)N[C@@H]1[C@H]2CC[C@H](C2)[C@@H]1C(=O)NCC1(C)CCCCC1 [Example 44]
hepatocyte CLint [1]: 35 µL/min/1e6 cells | microsomal CLint [2]: 110 µL/min/mg | hepatocyte CLint at 1 µM [3]: 17 µL/min/1e6 cells | solubility (Solubility (Test F)): 300 µM (≈ 172 µg/mL) | Test B Human Plasma Protein Binding (% free) [4]: 2.1 % free | Test A Sinf (human RXFP1; RXFP1 Hu cAMP): 107% | EC50 (human RXFP1; [5]): 16 nM

COc1cc(F)c(-c2ccc(C[C@H](C(=O)O)N(C)C)cc2)cc1C(=O)N[C@@H]1[C@H]2CC[C@H](C2)[C@@H]1C(=O)Nc1cccc(S(=O)(=O)C(F)(F)F)c1 [Example 292, (R)-2-(Dimethylamino)-3-(2′-fluoro-4′-methoxy-5′-(((1S,2R,3S,4R)-3-((3-((trifluoromethyl)sulfonyl)phenyl)carbamoyl)bicyclo[2.2.1]heptan-2-yl)carbamoyl)-[1,1′-biphenyl]-4-yl)propanoic acid]
hepatocyte CLint [1]: 14 µL/min/1e6 cells | microsomal CLint [2]: 24 µL/min/mg | hepatocyte CLint at 1 µM [3]: 4.6 µL/min/1e6 cells | solubility (Solubility (Test F)): 18 µM (≈ 12.7 µg/mL) | Test B Human Plasma Protein Binding (% free) [4]: 1.2 % free | Test A Sinf (human RXFP1; RXFP1 Hu cAMP): 110% | EC50 (human RXFP1; [5]): 77 nM

Cc1cc(F)c(O[C@H]2CC[C@@](C)(C(=O)O)CC2)cc1C(=O)N[C@@H]1[C@H]2CC[C@H](C2)[C@@H]1C(=O)NCC1(C)CCC1 [Example 5, (1S,4s)-4-(2-Fluoro-4-methyl-5-(((1S,2R,3S,4R)-3-(((1-methylcyclobutyl)methyl)carbamoyl)bicyclo[2.2.1]heptan-2-yl)carbamoyl)phenoxy)-1-methylcyclohexane-1-carboxylic acid]
hepatocyte CLint [1]: 11 µL/min/1e6 cells | microsomal CLint [2]: 16 µL/min/mg | hepatocyte CLint at 1 µM [3]: 15 µL/min/1e6 cells | solubility (Solubility (Test F)): 800 µM (≈ 423 µg/mL) | Test B Human Plasma Protein Binding (% free) [4]: 2.4 % free | Test A Sinf (human RXFP1; RXFP1 Hu cAMP): 85% | EC50 (human RXFP1; Test A EC50, RXFP1 Hu cAMP): > 1700 nM
